Common to all, as to parameters: species or system Homo sapiens
A short description of experiment [1]: Effect against transactivation responsive RNA-binding protein at pH 7.4 (50 mM Tris-HCl […]) in fluorimetric competition assay.
Experiment [2] in a line: Effect towards transactivation responsive RNA-binding protein at pH 7.5, (10 mM Tris-HCl, 150 mM KCl)by using fluorimetric competition assay.
Experiment [3] in a line: Effect against trans-activation responsive RNA-binding protein at pH 7.4 (50 mM Tris-HCl and 20 mM KCl) in fluorimetric competition assay.

pIC50: −log10 of the molar value.

IC50 data for 6 compounds are collected here from ChEMBL document CHEMBL1140393, “Neamine dimers targeting the HIV-1 TAR RNA” (Bioorg Med Chem Lett, 2005).

As a reminder, the pIC50 is the negative decadic logarithm of the IC50, by convention in mol/L. A lower pIC50 goes with a large IC50. For `CN(CC(=O)NCCCCCCO[C@@H]1[C@H](O)[C@H](N)C[C@@H](N)[C@H]1O[C@H]1O[C@@H](CN)[C@@H](O)[C@H](O)[C@@H]1N)CC(=O)NCCCCCCO[C@@H]1[C@H](O)[C@H](N)C[C@@H](N)[C@H]1O[C@H]1O[C@@H](CN)[C@@H](O)[C@H](O)[C@@H]1N`, the values for the pIC50 in experiment [1] and in experiment [2] were 6.82 and 6.00, respectively.

Take `CN(CC(=O)NCCCCCCO[C@H]1[C@H](O)[C@H](N)[C@@H](O[C@H]2[C@H](O)[C@H](O)[C@H](N)C[C@H]2N)O[C@H]1CN)CC(=O)NCCCCCCO[C@H]1[C@H](O)[C@H](N)[C@@H](O[C@H]2[C@H](O)[C@H](O)[C@H](N)C[C@H]2N)O[C@H]1CN`: the pIC50 in experiment [1] was 6.48; in experiment [2], 7.30.

As to `NCC1OC(OC2C(N)CC(N)C(O)C2O)C(N)C(O)C1OCCCCCCNC(=O)CCC(=O)NCCCCCCOC1C(CN)OC(OC2C(N)CC(N)C(O)C2O)C(N)C1O` (configuration not stated), the figures for the pIC50 in experiment [1] and in experiment [2] were 6.82 and 6.32, respectively.

With `NCC1OC(OC2C(N)CC(N)C(O)C2OCCCCCCNC(=O)CCC(=O)NCCCCCCOC2C(O)C(N)CC(N)C2OC2OC(CN)C(O)C(O)C2N)C(N)C(O)C1O` (configuration not stated), the pIC50 in experiment [1] is 6.40; in experiment [2] it was 6.05.

In the case of `NC[C@@H]1O[C@H](O[C@H]2[C@@H](O)[C@H](O[C@@H]3[C@@H](O)[C@H](N)C[C@H](N)[C@H]3O[C@H]3O[C@H](CN)[C@@H](O)[C@H](O)[C@H]3N)O[C@@H]2CO)[C@H](N)[C@@H](O)[C@@H]1O` [FRAMYCETIN], the pIC50 is 5.15 in experiment [1] and 4.46 in experiment [2].

On to `NC[C@H]1O[C@H](O[C@H]2[C@H](O)[C@@H](O)[C@H](N)C[C@@H]2N)[C@H](N)[C@@H](O)[C@@H]1O` [NEAMINE], for which the pIC50 in experiment [3] is 5.00; in experiment [2] it was 4.40.
